Laboratory results taken from PMC4490784, “Compensatory induction of MYC expression by sustained CDK9 inhibition via a BRD4-dependent mechanism” (eLife, 2015).

Assays:
Test in all cases: KINOMEscan binding assay
AAK1 = biological target: T1, AAK1 (Homo sapiens, UniProt Q2M2I8); settings: read-out: % Retention on Solid Support
T1 construct: purchased DiscoveRx KINOMEscan
Summary of the method: (§1)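 Panel of >400 kinases screened by active-site competition binding, compound at 1 and 10 µM.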

BRAF(V600E) = biological target: T2, BRAF(V600E) (Homo sapiens, UniProt P15056, V600E); settings: read-out: % Retention on Solid Support
T2 construct: purchased DiscoveRx KINOMEscan
Summary of the method: as §1

BTK = biological target: T3, BTK (Homo sapiens, UniProt Q06187)
T3 construct: purchased DiscoveRx KINOMEscan
Summary of the method: as §1

DAPK3 = biological target: T4, DAPK3 (Homo sapiens, UniProt O43293); settings: read-out: % Retention on Solid Support
T4 construct: purchased DiscoveRx KINOMEscan
Summary of the method: as §1

DRAK1 = biological target: T5, DRAK1 (Homo sapiens, UniProt Q9UEE5); settings: read-out: % Retention on Solid Support
T5 construct: purchased DiscoveRx KINOMEscan
Summary of the method: as §1

EGFR = biological target: T6, EGFR (Homo sapiens, UniProt P00533)
T6 construct: purchased DiscoveRx KINOMEscan
Summary of the method: as §1

EPHA5 = biological target: T7, EPHA5 (Homo sapiens, UniProt P54756)
T7 construct: purchased DiscoveRx KINOMEscan
Summary of the method: as §1

FER = biological target: T8, FER (Homo sapiens, UniProt P16591); settings: read-out: % Retention on Solid Support
T8 construct: purchased DiscoveRx KINOMEscan
Summary of the method: as §1

HIPK2 = biological target: T9, HIPK2 (Homo sapiens, UniProt Q9H2X6); settings: read-out: % Retention on Solid Support
T9 construct: purchased DiscoveRx KINOMEscan
Summary of the method: as §1

IRAK3 = biological target: T10, IRAK3 (Homo sapiens, UniProt Q9Y616); settings: read-out: % Retention on Solid Support
T10 construct: purchased DiscoveRx KINOMEscan
Summary of the method: as §1

KIT(D816H) = biological target: T11, KIT(D816H) (Homo sapiens, UniProt P10721, D816H); settings: 1 µM i-CDK9; read-out: % Retention on Solid Support
T11 construct: purchased DiscoveRx KINOMEscan
Summary of the method: as §1

MAK = biological target: T12, MAK (Homo sapiens, UniProt P20794); settings: read-out: % Retention on Solid Support
T12 construct: purchased DiscoveRx KINOMEscan
Summary of the method: as §1

MERTK = biological target: T13, MERTK (Homo sapiens, UniProt Q12866); settings: read-out: % Retention on Solid Support
T13 construct: purchased DiscoveRx KINOMEscan
Summary of the method: as §1

MKK7 = biological target: T14, MKK7 (Homo sapiens, UniProt O14733); settings: 1 µM i-CDK9
T14 construct: purchased DiscoveRx KINOMEscan
Summary of the method: as §1

MRCKA = biological target: T15, MRCKA (Homo sapiens, UniProt Q5VT25); settings: read-out: % Retention on Solid Support
T15 construct: purchased DiscoveRx KINOMEscan
Summary of the method: as §1

MYO3B = biological target: T16, MYO3B (Homo sapiens, UniProt Q8WXR4); settings: read-out: % Retention on Solid Support
T16 construct: purchased DiscoveRx KINOMEscan
Summary of the method: as §1

NLK = biological target: T17, NLK (Homo sapiens, UniProt Q9UBE8); settings: read-out: % Retention on Solid Support
T17 construct: purchased DiscoveRx KINOMEscan
Summary of the method: as §1

PIM2 = biological target: T18, PIM2 (Homo sapiens, UniProt Q9P1W9); settings: read-out: % Retention on Solid Support
T18 construct: purchased DiscoveRx KINOMEscan
Summary of the method: as §1

PLK2 = biological target: T19, PLK2 (Homo sapiens, UniProt Q9NYY3)
T19 construct: purchased DiscoveRx KINOMEscan
Summary of the method: as §1

PLK4 = biological target: T20, PLK4 (Homo sapiens, UniProt O00444); settings: read-out: % Retention on Solid Support
T20 construct: purchased DiscoveRx KINOMEscan
Summary of the method: as §1

PRKCH = biological target: T21, PRKCH (Homo sapiens, UniProt P24723); settings: read-out: % Retention on Solid Support
T21 construct: purchased DiscoveRx KINOMEscan
Summary of the method: as §1

PRKX = biological target: T22, PRKX (Homo sapiens, UniProt P51817); settings: read-out: % Retention on Solid Support
T22 construct: purchased DiscoveRx KINOMEscan
Summary of the method: as §1

RAF1 = biological target: T23, RAF1 (Homo sapiens, UniProt P04049); settings: read-out: % Retention on Solid Support
T23 construct: purchased DiscoveRx KINOMEscan
Summary of the method: as §1

ROCK1 = biological target: T24, ROCK1 (Homo sapiens, UniProt Q13464); settings: read-out: % Retention on Solid Support
T24 construct: purchased DiscoveRx KINOMEscan
Summary of the method: as §1

[1] = biological target: T25, RSK1(Kin.Dom.2-C-terminal) (Homo sapiens, UniProt Q15418); settings: read-out: % Retention on Solid Support
T25 construct: RSK1(Kin.Dom.2-C-terminal); purchased DiscoveRx KINOMEscan
Summary of the method: as §1

SBK1 = biological target: T26, SBK1 (Homo sapiens, UniProt Q52WX2); settings: read-out: % Retention on Solid Support
T26 construct: purchased DiscoveRx KINOMEscan
Summary of the method: as §1

STK39 = biological target: T27, STK39 (Homo sapiens, UniProt Q9UEW8); settings: read-out: % Retention on Solid Support
T27 construct: purchased DiscoveRx KINOMEscan
Summary of the method: as §1

TLK1 = biological target: T28, TLK1 (Homo sapiens, UniProt Q9UKI8); settings: read-out: % Retention on Solid Support
T28 construct: purchased DiscoveRx KINOMEscan
Summary of the method: as §1

ULK3 = biological target: T29, ULK3 (Homo sapiens, UniProt Q6PHR2)
T29 construct: purchased DiscoveRx KINOMEscan
Summary of the method: as §1

p38-delta = biological target: T30, p38-delta (Homo sapiens, UniProt O15264); settings: read-out: % Retention on Solid Support
T30 construct: purchased DiscoveRx KINOMEscan
Summary of the method: as §1

T6 sequence (P00533 25-1210): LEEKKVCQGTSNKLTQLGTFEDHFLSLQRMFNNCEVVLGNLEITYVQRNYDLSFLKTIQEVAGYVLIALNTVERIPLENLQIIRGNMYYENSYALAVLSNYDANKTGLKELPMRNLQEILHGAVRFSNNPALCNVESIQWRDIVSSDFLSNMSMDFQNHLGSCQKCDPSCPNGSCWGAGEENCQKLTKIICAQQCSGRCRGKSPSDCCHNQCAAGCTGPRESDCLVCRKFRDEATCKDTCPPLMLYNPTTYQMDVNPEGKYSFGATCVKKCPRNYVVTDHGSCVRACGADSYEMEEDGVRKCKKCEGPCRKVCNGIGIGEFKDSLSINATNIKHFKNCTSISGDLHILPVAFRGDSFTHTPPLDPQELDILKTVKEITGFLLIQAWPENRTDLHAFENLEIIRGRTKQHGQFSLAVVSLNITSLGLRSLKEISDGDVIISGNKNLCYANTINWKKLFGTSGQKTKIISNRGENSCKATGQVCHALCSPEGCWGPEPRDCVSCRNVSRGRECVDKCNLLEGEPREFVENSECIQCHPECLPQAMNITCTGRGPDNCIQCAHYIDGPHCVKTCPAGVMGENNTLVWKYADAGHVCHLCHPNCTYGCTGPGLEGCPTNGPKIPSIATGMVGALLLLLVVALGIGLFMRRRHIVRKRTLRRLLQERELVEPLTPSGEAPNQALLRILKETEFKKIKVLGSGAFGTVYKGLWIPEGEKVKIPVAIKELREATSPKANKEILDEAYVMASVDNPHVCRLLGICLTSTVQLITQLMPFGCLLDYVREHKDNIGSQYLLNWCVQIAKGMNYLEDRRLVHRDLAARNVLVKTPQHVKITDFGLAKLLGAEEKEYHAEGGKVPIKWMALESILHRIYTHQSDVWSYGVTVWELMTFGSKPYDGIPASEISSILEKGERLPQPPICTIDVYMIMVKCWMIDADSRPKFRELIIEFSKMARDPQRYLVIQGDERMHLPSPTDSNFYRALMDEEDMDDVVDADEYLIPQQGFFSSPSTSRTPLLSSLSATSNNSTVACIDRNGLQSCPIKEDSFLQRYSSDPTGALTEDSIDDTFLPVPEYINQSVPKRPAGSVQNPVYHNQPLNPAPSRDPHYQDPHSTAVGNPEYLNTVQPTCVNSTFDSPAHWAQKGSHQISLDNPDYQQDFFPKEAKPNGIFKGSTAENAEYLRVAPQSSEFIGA
T24 sequence (Q13464 whole entry): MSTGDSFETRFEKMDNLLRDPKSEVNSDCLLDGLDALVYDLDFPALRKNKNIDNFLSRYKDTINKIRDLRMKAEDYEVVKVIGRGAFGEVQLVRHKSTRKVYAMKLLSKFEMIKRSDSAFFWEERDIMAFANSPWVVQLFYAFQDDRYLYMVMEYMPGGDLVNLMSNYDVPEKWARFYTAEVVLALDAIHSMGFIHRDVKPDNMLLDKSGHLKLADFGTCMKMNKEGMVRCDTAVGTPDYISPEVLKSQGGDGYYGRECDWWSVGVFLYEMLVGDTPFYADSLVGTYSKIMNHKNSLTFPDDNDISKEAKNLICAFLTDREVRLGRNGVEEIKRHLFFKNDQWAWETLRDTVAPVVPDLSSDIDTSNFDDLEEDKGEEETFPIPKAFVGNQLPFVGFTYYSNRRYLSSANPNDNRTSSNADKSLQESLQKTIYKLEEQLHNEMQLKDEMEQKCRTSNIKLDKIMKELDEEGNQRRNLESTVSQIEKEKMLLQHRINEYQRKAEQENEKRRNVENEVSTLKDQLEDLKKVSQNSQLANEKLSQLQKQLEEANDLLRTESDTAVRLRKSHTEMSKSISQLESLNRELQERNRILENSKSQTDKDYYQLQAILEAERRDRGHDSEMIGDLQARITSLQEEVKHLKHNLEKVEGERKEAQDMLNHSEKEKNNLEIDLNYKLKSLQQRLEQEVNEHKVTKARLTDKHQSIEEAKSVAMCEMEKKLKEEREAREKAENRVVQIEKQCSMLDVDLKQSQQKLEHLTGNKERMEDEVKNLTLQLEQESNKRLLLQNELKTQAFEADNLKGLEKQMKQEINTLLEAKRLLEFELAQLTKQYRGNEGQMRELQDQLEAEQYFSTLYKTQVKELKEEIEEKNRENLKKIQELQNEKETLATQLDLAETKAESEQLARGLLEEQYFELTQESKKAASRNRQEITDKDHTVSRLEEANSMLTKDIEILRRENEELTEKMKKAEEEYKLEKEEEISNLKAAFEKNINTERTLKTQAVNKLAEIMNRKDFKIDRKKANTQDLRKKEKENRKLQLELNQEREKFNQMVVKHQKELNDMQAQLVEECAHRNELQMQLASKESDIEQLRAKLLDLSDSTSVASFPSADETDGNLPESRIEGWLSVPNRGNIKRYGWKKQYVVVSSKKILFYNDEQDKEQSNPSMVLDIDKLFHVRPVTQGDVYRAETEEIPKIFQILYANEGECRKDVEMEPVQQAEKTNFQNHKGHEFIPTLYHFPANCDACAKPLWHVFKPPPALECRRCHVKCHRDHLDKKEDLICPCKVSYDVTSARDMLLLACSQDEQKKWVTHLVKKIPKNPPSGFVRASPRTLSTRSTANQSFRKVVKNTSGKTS
T26 sequence (Q52WX2 whole entry): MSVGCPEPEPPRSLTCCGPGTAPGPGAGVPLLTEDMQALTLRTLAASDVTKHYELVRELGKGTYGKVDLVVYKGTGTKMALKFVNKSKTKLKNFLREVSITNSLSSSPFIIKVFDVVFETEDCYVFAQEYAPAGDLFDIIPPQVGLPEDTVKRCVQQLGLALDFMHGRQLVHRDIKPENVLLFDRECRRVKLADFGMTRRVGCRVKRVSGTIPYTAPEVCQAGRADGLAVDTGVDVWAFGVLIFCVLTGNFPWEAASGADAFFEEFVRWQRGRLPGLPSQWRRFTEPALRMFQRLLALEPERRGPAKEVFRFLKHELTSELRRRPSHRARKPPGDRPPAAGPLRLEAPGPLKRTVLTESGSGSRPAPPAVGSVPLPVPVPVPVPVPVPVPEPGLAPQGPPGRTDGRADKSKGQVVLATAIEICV
T28 sequence (Q9UKI8 whole entry): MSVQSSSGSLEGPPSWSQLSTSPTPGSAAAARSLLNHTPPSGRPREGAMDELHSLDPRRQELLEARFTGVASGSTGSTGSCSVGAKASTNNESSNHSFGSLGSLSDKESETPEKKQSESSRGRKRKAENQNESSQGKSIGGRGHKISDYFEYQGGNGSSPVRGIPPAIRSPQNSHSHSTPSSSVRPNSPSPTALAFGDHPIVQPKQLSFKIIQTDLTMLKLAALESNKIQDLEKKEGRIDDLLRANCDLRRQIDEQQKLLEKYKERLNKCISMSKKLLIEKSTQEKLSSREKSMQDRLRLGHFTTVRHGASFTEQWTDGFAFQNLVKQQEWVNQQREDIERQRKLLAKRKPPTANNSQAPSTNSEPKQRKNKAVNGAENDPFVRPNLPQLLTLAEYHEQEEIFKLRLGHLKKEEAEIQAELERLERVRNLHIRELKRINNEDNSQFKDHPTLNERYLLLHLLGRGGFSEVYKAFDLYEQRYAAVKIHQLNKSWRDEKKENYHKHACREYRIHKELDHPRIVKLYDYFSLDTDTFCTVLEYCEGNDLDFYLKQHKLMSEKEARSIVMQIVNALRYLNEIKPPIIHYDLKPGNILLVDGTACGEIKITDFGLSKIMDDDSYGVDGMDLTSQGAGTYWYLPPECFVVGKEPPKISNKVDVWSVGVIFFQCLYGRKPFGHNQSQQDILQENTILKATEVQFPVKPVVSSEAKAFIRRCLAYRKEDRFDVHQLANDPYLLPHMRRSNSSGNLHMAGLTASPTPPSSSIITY
T10 sequence (Q9Y616 whole entry): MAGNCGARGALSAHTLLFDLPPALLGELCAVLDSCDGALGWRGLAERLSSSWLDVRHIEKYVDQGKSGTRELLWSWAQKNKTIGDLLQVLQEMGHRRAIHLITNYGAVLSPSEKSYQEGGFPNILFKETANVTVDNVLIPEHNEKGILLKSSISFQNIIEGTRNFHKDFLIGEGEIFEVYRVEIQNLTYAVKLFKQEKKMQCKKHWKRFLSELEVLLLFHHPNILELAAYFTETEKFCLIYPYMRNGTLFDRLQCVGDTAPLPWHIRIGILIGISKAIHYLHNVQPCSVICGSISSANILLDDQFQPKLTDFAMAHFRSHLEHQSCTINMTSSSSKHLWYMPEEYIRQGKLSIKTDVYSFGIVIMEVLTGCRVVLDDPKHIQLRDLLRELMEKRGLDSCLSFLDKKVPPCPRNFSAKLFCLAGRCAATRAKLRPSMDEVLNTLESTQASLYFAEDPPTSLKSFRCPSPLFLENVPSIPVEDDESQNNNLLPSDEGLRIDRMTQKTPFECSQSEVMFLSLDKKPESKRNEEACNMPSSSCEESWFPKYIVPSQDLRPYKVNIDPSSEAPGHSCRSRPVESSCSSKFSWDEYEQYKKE
T25 sequence (Q15418 392-735 limits assumed): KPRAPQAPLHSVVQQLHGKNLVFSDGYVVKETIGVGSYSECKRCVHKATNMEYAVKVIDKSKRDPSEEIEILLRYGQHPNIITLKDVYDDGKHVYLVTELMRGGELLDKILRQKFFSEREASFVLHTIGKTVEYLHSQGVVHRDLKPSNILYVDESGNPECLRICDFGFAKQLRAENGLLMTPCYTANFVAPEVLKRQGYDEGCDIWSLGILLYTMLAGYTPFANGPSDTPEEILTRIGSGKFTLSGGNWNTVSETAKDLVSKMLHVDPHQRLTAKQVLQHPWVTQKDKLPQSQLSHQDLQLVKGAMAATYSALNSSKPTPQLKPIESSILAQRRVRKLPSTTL
T22 sequence (P51817 whole entry): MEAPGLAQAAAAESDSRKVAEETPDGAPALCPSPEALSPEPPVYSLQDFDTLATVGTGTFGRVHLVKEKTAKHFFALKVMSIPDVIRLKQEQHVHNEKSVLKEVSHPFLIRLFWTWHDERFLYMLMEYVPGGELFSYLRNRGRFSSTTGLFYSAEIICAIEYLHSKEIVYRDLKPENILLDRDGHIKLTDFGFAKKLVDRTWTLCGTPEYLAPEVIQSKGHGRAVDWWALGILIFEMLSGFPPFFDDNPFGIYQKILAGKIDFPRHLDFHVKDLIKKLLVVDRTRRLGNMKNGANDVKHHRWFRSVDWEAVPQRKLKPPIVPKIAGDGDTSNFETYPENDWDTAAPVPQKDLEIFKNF

N[C@H]1CC[C@H](Nc2cc(-c3cccc(NCc4cccc(F)c4)n3)c(Cl)cn2)CC1 [i-CDK9, N2′-(trans-4-aminocyclohexyl)-5′-chloro-N6-(3-fluorobenzyl)-2,4′-bipyridine-2′,6-diamine]
remaining binding at 1 µM (AAK1; 1 µM i-CDK9): 100% | remaining binding at 10 µM (AAK1; 10 µM i-CDK9): 100% | remaining binding at 1 µM (BRAF(V600E); 1 µM i-CDK9): 100% | remaining binding at 10 µM (BRAF(V600E); 10 µM i-CDK9): 88% | % Retention on Solid Support (BTK; 1 µM i-CDK9): 100% | % Retention on Solid Support (BTK; 10 µM i-CDK9): 100% | remaining binding at 1 µM (DAPK3; 1 µM i-CDK9): 90% | remaining binding at 10 µM (DAPK3; 10 µM i-CDK9): 70% | remaining binding at 1 µM (DRAK1; 1 µM i-CDK9): 90% | remaining binding at 10 µM (DRAK1; 10 µM i-CDK9): 48% | % Retention on Solid Support (EGFR; 1 µM i-CDK9): 4.7% | % Retention on Solid Support (EGFR; 10 µM i-CDK9): 100% | % Retention on Solid Support (EPHA5; 1 µM i-CDK9): 96% | % Retention on Solid Support (EPHA5; 10 µM i-CDK9): 100% | remaining binding at 1 µM (FER; 1 µM i-CDK9): 56% | remaining binding at 10 µM (FER; 10 µM i-CDK9): 100% | remaining binding at 1 µM (HIPK2; 1 µM i-CDK9): 100% | remaining binding at 10 µM (HIPK2; 10 µM i-CDK9): 37% | remaining binding at 1 µM (IRAK3; 1 µM i-CDK9): 100% | remaining binding at 10 µM (IRAK3; 10 µM i-CDK9): 88% | remaining binding at 1 µM (KIT(D816H)): 100% | remaining binding at 1 µM (MAK; 1 µM i-CDK9): 100% | remaining binding at 10 µM (MAK; 10 µM i-CDK9): 30% | remaining binding at 1 µM (MERTK; 1 µM i-CDK9): 100% | remaining binding at 10 µM (MERTK; 10 µM i-CDK9): 60% | % Retention on Solid Support (MKK7): 100% | remaining binding at 1 µM (MRCKA; 1 µM i-CDK9): 100% | remaining binding at 10 µM (MRCKA; 10 µM i-CDK9): 100% | remaining binding at 1 µM (MYO3B; 1 µM i-CDK9): 100% | remaining binding at 10 µM (MYO3B; 10 µM i-CDK9): 36% | remaining binding at 1 µM (NLK; 1 µM i-CDK9): 100% | remaining binding at 10 µM (NLK; 10 µM i-CDK9): 91% | remaining binding at 1 µM (PIM2; 1 µM i-CDK9): 96% | remaining binding at 10 µM (PIM2; 10 µM i-CDK9): 22% | % Retention on Solid Support (PLK2; 1 µM i-CDK9): 100% | % Retention on Solid Support (PLK2; 10 µM i-CDK9): 100% | remaining binding at 1 µM (PLK4; 1 µM i-CDK9): 89% | remaining binding at 10 µM (PLK4; 10 µM i-CDK9): 91% | remaining binding at 1 µM (PRKCH; 1 µM i-CDK9): 83% | remaining binding at 10 µM (PRKCH; 10 µM i-CDK9): 80% | remaining binding at 1 µM (PRKX; 1 µM i-CDK9): 100% | remaining binding at 10 µM (PRKX; 10 µM i-CDK9): 90% | remaining binding at 1 µM (RAF1; 1 µM i-CDK9): 100% | remaining binding at 10 µM (RAF1; 10 µM i-CDK9): 100% | remaining binding at 1 µM (ROCK1; 1 µM i-CDK9): 100% | remaining binding at 10 µM (ROCK1; 10 µM i-CDK9): 93% | remaining binding at 1 µM ([1]; 1 µM i-CDK9): 93% | remaining binding at 10 µM ([1]; 10 µM i-CDK9): 84% | remaining binding at 1 µM (SBK1; 1 µM i-CDK9): 100% | remaining binding at 10 µM (SBK1; 10 µM i-CDK9): 100% | remaining binding at 1 µM (STK39; 1 µM i-CDK9): 100% | remaining binding at 10 µM (STK39; 10 µM i-CDK9): 77% | remaining binding at 1 µM (TLK1; 1 µM i-CDK9): 62% | remaining binding at 10 µM (TLK1; 10 µM i-CDK9): 95% | % Retention on Solid Support (ULK3; 1 µM i-CDK9): 94% | % Retention on Solid Support (ULK3; 10 µM i-CDK9): 88% | remaining binding at 1 µM (p38-delta; 1 µM i-CDK9): 100% | remaining binding at 10 µM (p38-delta; 10 µM i-CDK9): 98%
